{"source": "patent US10300048B2", "about": "“Thiazolidinones as cellular anandamide uptake inhibitors and their use in the treatment of psychiatric or neurological disorders and inflammation, in particular neuroinflammation” (UNIVERSITAT BERN, priority 2014, dated 2019)", "key": {"[1]": {"test_system": "AEA cellular uptake, U937 cells", "test": "[3H]-AEA cellular uptake inhibition in U937 cells", "type": "cell-based", "settings": "Table 1, U937 cells, 100 nM AEA, read-out: AEA uptake inhibition IC50", "description": "[^3H]-AEA Cellular Uptake\nScreening for AEA cellular uptake inhibition was performed in a semi-automated procedure: Pipetting and washing steps were performed by a Biomek3000 laboratory workstation. First, required amounts of U937 cells were centrifuged at 100×g for 5 min and resuspended in RPMI (37° C.) to a final concentration of 2×10^6 cells/mL. Then, 250 μL of cell suspension (0.5×10^6 cells per sample) were transferred into AquaSil™ silanized glass vials (Chromacol 1.1-MTV) in 96-well format. After addition of 5 μL vehicle (DMSO) or compounds the cells were incubated at 37° C. for 15 min. As positive controls OMDM-2 and UCM707 were used at 10 μM in each run. The ETI-T compounds were measured at up to 7 concentrations in triplicates from 100 pM-100 μM. After pre-incubation, a mixture of 0.5 nM[ethanolamine-1-^3H]-AEA, (60 Ci/mmol) and 99.5 nM of cold AEA (final 100 nM) was added and samples were incubated at 37° C. for another 15 min. The reaction was stopped by rapid filtration over UniFilter-96 GF/C filters (PerkinElmer) pre-soaked with PBS 0.25% BSA. Cells were washed three times with 100 μL ice-cold PBS buffer containing 1% fatty acid free BSA. After drying, 45 μL MicroScint 20 scintillation cocktail (PerkinElmer, Waltham, Mass., US) was added to the wells and the plate was sealed. Radioactivity was measured by liquid scintillation counting on a PerkinElmer Wallac Trilux MicroBeta 1450 during 2 min. Non-specific binding of [^3H]AEA (100 nM) to the glass vials was never higher than 10%. IC50 values were calculated by GraphPad® by non-linear regression using the built-in log(inhibitor) vs. response-variable slope (four parameters) function.\n(§1) Statistical analysis and IC50 values were determined using GraphPad® Prism 5.0 (GraphPad® Software, San Diego, Calif., US). Inhibition curves were obtained by non-linear regression using the built-in log(inhibitor) vs. response-variable slope (four parameters) function. Results were calculated as % of vehicle control of the corresponding fraction (cells, aqueous phase) if not mentioned else. In vivo results are shown in absolute values and were analyzed by a one-way ANOVA following a Tukey's multiple comparison test or student's t-test. If not indicated else the results were compared vs. vehicle (CTRL). *** P<0.001, ** P<0.01, * P<0.05, ns=not significant P>0.05."}, "CB1 receptor": {"biological_target": "CB1 receptor", "settings": "literature values of reference substances; cited from earlier work"}, "FAAH": {"biological_target": "FAAH (Homo sapiens (Human), UniProt O00519)", "sequence (O00519 whole entry)": "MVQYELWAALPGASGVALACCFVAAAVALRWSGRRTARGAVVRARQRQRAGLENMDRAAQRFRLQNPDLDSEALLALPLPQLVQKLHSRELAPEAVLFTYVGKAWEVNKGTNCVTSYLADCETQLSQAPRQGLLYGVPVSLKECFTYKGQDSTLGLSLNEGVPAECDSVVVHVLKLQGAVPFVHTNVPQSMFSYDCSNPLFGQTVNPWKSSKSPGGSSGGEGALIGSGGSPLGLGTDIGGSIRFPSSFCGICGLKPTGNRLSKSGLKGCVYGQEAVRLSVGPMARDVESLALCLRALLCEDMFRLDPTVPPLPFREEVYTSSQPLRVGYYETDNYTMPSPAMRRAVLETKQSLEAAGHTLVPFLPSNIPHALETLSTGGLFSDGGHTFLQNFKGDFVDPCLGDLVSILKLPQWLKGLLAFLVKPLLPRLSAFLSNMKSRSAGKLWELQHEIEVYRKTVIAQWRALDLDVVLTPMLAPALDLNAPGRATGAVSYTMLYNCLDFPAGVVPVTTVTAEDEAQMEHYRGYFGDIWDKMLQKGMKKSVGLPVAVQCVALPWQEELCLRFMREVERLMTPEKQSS", "test": "FAAH activity: hydrolysis of [3H]-AEA in U937 cell homogenates", "type": "biochemical", "settings": "Table 2; U937 cell homogenate; read-out: FAAH inhibition IC50", "description": "Hydrolysis of [^3H]-AEA by FAAH was determined as previously described in cell homogenates of U937 cells (0.18 mg protein) (Omeir et al., 1999, Biochem Biophys Res Commun, 264, 316-20; Mor et al., 2004, J Med Chem, 47, 4998-5008). Protein amounts of cell homogenates corresponded to 0.5×10^6 cells (U937), to assure best possible comparability of IC50 values as used for the AEA cellular uptake assays. URB597 was used as positive control. Protein quantification was performed using a BCA assay (Thermo Scientific). Enzyme activity was assessed by addition of vehicle or compounds in 10 μL DMSO to 490 μL homogenate in 10 mM Tris HCl, 1 mM EDTA, 0.1% (w/v) BSA fatty acid free, pH=8 and incubation for 15 min at 37° C. After, a mixture of AEA plus [ethanolamine-1-^3H]-AEA (0.5 nM) at final 100 nM was added to the homogenates and incubated for 15 min at 37° C. The reaction was stopped by addition of 1 mL ice-cold CHCl3:MeOH (1:1) followed by vigorous vortexing. Phase separation was achieved by centrifugation at 10′000×g at 4° C. for 10 min. Radioactivity of the separated aqueous phase (upper phase) containing [^3H-ethanolamine] or [^3H-glycerol] was measured by liquid scintillation counting on a Tri-Carb 2100 TR liquid scintillation analyzer after addition of 3.5 mL Ultima Gold scintillation cocktail (PerkinElmer Life Sciences). Results are expressed as hydrolysis of tritium substrate in percent of vehicle treated control. IC50 values were calculated by GraphPad®. Data are reported as means of n=3 independent experiments performed in triplicates.\nas §1"}}, "note": "Where two headings read alike, the source gives them in different places.", "data": [{"smiles": "CCCCCCCC/C=C\\CCCCCCCC(=O)N[C@@H](CO)c1ccc(O)cc1", "note": "[OMDM-2, (R)—N-(1-(4-hydroxyphenyl)-2-hydroxyethyl)oleamide, reference compound]", "values": [{"measurement": "IC50", "setting": "[1]; Homo sapiens, U-937", "result": 3.9, "unit": "µM"}, {"measurement": "Ki", "setting": "CB1 receptor", "result": 5.1, "unit": "µM"}]}, {"smiles": "CCCCC/C=C\\C/C=C\\C/C=C\\C/C=C\\CCCC(=O)NCc1ccoc1", "note": "[UCM707, N-(3-furanylmethyl)-(5Z,8Z,11Z,14Z)-eicosatetraenamide, reference compound]", "values": [{"measurement": "IC50", "setting": "FAAH", "result": 8.3, "unit": "µM"}, {"measurement": "IC50", "setting": "[1]", "result": 1.9, "unit": "µM"}, {"measurement": "Ki", "setting": "CB1 receptor", "result": "> 1", "unit": "µM"}]}]}
